Assay results taken from US12612412B2, “Antiviral heterocyclic compounds” (Enanta Pharmaceuticals, Inc., priority 2021, dated 2026).

System: genotype A, "Long" strain RSV
Assay: RSV-A assay (CPE protection in Hep-2 cells, ATPlite readout)
Assay type: cell-based, Human respiratory syncytial virus (HRSV)
Details: human respiratory syncytial virus, RSV-A Long strain, MOI 0.1, CPE protection, read-out: Human RSV-A (“Long”) EC50
Excerpt: Hep-2 cells, (originally derived from tumors grown in irradiated-cortisonised weanling rats that had been injected with epidermoid carcinoma tissue from the larynx of a person, but later found to be indistinguishable from HeLa cells by PCR DNA analysis), were used for the culturing of genotype A, “Long” strain RSV. Flasks were inoculated with RSV and viral stocks were collected once cytopathic effect (CPE) was greater than 90%. Viral stocks in 25% sucrose media were snap frozen using liquid nitrogen to increase viral stability. Viral stock titers were quantified by tissue culture infectious dose 50% (TCID50) using 8,000 cells per well and 3-fold viral dilutions across a 96-well plate, cultured for 4 days. Viral stock titers were also quantified by a plaque forming unit assay, as described elsewhere.
Following extensive parameter testing, the final assay is run as follows: Hep-2 cells are seeded into the inner 60 wells of a 96-well plate at 8,000 cells per well in a volume of 50 μL using Growth Media (DMEM without phenol red, 1% L-Glut, 1% Penn/Strep, 1% nonessential amino acids, 10% heat-inactivated FBS). 2-fold serial dilutions of control and test compounds are added to the wells in duplicate in a total volume of 25 μL. Viral stock is then added to the wells at a multiplicity of infection (MOI) of 0.1 in a volume of 25 μL, bringing the total volume of each well to 100 μL. The MOI is calculated using the PFU/mL, or TCID50 if unavailable. Each 96-well plate has a control column of 6 wells with cells and virus but no compound (negative control, max CPE), a column with cells but no compound or virus (positive control, minimum CPE), and a column with no cells or virus or compound (background plate/reagent control). The control wells with cells but no virus are given an additional 25 μL of growth media containing an equal quantity of sucrose as those wells receiving the viral stock in order to keep consistent in media and volume conditions. The outer wells of the plate are filled with 125 μL of moat media (DMEM, 1% Penn/Strep) to act as a thermal and evaporative moat around the test wells. Following a 5-day incubation period, the plates are read using ATPlite (50 uL added per well), which quantifies the amount of ATP (a measure of cell health) present in each well. Assay plates are read using the Envision luminometer. […] EC50 ranges are as follows: A<0.2 μM; B>0.2 μM.

| EC50 | SMILES |
| --- | --- |
| > 200 nM | COc1cc(C(=O)NC[C@](O)(c2cc3c(c(-c4ccc(F)c(Cl)c4)n2)OC[C@]3(C)C(N)=O)C(F)(F)F)cn2nc(C3CC3)cc12 [Example 880] |
| > 200 nM | COc1cc(C(=O)NC[C@@](O)(c2cc3c(c(C4=CCN(C(=O)OC(C)(C)C)CC4)n2)OC[C@]3(C)C(N)=O)C(F)(F)F)cc2cn(C3CC3)nc12 [Example 1239] |
| < 200 nM | COc1cc(C(=O)NC[C@](O)(c2cc3c(c(-c4ccc(F)cc4)n2)OC[C@]3(C)C(=O)NCCC(C)(C)O)C(F)(F)F)cc2cn(C3CC3)nc12 [Example 1175] |
| < 200 nM | COc1cc(C(=O)NC[C@](O)(c2cc3c(c(-c4ccc5c(c4)OC(F)(F)O5)n2)OC[C@]3(C)C(N)=O)C2CC2)cc2cc(C(F)F)nnc12 [Example 1210] |

Same assay, conditions: human respiratory syncytial virus, genotype A “Long” strain RSV, MOI 0.1, CPE protection, read-out: Human RSV-A (“Long”)

| EC50 | SMILES |
| --- | --- |
| < 200 nM | C[C@]1(C(N)=O)COc2c1cc([C@@](O)(CNC(=O)c1cc(OC3CC3)c3[nH]ccc3c1)C(F)(F)F)nc2-c1ccc(F)cc1 [Example 206] |
| > 200 nM | CC(C)c1cc2[nH]ncc2cc1C(=O)NC[C@](O)(c1cc2c(c(-c3ccc(F)cc3)n1)OC[C@]2(C)C(N)=O)C(F)(F)F [Example 125] |
| > 200 nM | COc1ncc(F)cc1C(=O)NC[C@](O)(c1cc2c(c(-c3ccc(F)cc3)n1)OC[C@]2(C)C(N)=O)C(F)(F)F [Example 412] |
| < 200 nM | CCn1cc2cc(C(=O)NC[C@](O)(c3cc4c(c(-c5ccc(F)cc5)n3)OC[C@]4(C)C(N)=O)C(F)(F)F)cc(Cl)c2n1 [Example 173] |
| < 200 nM | COc1cc(C(=O)NC[C@](O)(c2cc3c(c(-c4ccc(F)cc4)n2)OCC3(C(N)=O)C(F)F)C(F)(F)F)cc2c1=NC(C1CC1)N=2 (some centres unmarked) [Example 253] |
| > 200 nM | Cn1nc(F)c2cc(C(=O)NC[C@](O)(c3cc4c(c(-c5ccc(F)cc5)n3)OC[C@]4(C)C(N)=O)C(F)(F)F)ccc21 [Example 31] |
| > 200 nM | Cn1cc(C(=O)NC[C@](O)(c2cc3c(c(-c4ccc(F)cc4)n2)OC[C@]3(C)C(N)=O)C(F)(F)F)nn1 [Example 337] |
| > 200 nM | C[C@]1(C(N)=O)COc2c1cc([C@@](O)(CNC(=O)c1ccc3nc(NS(C)(=O)=O)sc3c1)C(F)(F)F)nc2-c1ccc(F)cc1 [Example 140] |
| > 200 nM | C[C@]1(C(N)=O)COc2c1cc([C@@](O)(CNC(=O)c1ccc3nc(C4CC4)cn3n1)C(F)(F)F)nc2-c1ccc(F)cc1 [Example 186] |
| > 200 nM | C[C@]1(C(N)=O)COc2c1cc([C@@](O)(CNC(=O)c1ccc3[nH]c(C4CC4)cc3c1)C(F)(F)F)nc2-c1ccc(F)cc1 [Example 205] |
| < 200 nM | C[C@]1(C(N)=O)COc2c1cc([C@@](O)(CNC(=O)c1ccn3nc(N)cc3c1)C(F)(F)F)nc2-c1ccc(F)cc1 [Example 87] |
| < 200 nM | COc1cc(C(=O)NC[C@](O)(c2cc3c(c(-c4ccc(F)cc4)n2)OCC3(C(N)=O)C(F)F)C(F)(F)F)cc2cn(C(F)F)nc12 (some centres unmarked) [Example 255] |
| > 200 nM | COc1cccc(-c2cc(C(=O)NC[C@](O)(c3cc4c(c(-c5ccc(F)cc5)n3)OC[C@]4(C)C(N)=O)C(F)(F)F)n[nH]2)c1 [Example 208] |
| > 200 nM | COc1cc(C(=O)NC[C@](O)(c2cc3c(c(-c4ccc(F)cc4)n2)OC[C@]3(C)C(N)=O)C(F)(F)F)cc2cc(C(=O)O)c(C)nc12 [Example 76] |
| > 200 nM | COc1cccc2oc(C(=O)NC[C@](O)(c3cc4c(c(-c5ccc(F)cc5)n3)OC[C@]4(C)C(N)=O)C(F)(F)F)cc12 [Example 430] |
| < 200 nM | COc1cc(C(=O)NC[C@](O)(c2cc3c(c(-c4ccc(F)c(Cl)c4)n2)OC[C@]3(C)C(N)=O)C(F)(F)F)cc2cc(Cl)c(C)nc12 [Example 228] |
| < 200 nM | C[C@]1(C(N)=O)COc2c1cc([C@@](O)(CNC(=O)c1cc(OC3CC3)n3nc(C4CC4)cc3c1)C1CC1)nc2-c1ccc(F)cc1 [Example 331] |
| > 200 nM | C[C@]1(C(N)=O)COc2c1cc([C@@](O)(CNC(=O)c1ccc3sc(N)nc3c1)C(F)(F)F)nc2-c1ccc(F)cc1 [Example 190] |
| > 200 nM | C[C@]1(C(N)=O)COc2c1cc([C@@](O)(CNC(=O)c1ccco1)C(F)(F)F)nc2-c1ccc(F)cc1 [Example 404] |
